Results published in patent US20150045410A1, “METHOD OF REGULATING CFTR EXPRESSION AND PROCESSING” (University of Iowa Research Foundation, priority 2012, published 2015).

Biological target: T1, CFTR-ΔF508 (Homo sapiens, UniProt P13569, DEL508-508)
T1 construct: expressed in transfected cells
Assay: Cell surface ELISA (anti-HA) in HeLa cells stably expressing HA-tagged CFTR-ΔF508
Type: cell-based
Details: for surface display of ΔF508-CFTR (live cell-surface ELISA): HeLa-ΔF508-CFTR-HA cells treated daily with drugs, 72 hr post-treatment, vs DMSO (FIG. 28, 29); for mutant CFTR at the cell surface (ELISA): HeLa cells, CFTR-ΔF508-3HA under CMV promoter, oligonucleotide transfection, 6, 12, 24 hrs

T1 sequence (P13569 with tags, fused parts or gaps DEL508-508): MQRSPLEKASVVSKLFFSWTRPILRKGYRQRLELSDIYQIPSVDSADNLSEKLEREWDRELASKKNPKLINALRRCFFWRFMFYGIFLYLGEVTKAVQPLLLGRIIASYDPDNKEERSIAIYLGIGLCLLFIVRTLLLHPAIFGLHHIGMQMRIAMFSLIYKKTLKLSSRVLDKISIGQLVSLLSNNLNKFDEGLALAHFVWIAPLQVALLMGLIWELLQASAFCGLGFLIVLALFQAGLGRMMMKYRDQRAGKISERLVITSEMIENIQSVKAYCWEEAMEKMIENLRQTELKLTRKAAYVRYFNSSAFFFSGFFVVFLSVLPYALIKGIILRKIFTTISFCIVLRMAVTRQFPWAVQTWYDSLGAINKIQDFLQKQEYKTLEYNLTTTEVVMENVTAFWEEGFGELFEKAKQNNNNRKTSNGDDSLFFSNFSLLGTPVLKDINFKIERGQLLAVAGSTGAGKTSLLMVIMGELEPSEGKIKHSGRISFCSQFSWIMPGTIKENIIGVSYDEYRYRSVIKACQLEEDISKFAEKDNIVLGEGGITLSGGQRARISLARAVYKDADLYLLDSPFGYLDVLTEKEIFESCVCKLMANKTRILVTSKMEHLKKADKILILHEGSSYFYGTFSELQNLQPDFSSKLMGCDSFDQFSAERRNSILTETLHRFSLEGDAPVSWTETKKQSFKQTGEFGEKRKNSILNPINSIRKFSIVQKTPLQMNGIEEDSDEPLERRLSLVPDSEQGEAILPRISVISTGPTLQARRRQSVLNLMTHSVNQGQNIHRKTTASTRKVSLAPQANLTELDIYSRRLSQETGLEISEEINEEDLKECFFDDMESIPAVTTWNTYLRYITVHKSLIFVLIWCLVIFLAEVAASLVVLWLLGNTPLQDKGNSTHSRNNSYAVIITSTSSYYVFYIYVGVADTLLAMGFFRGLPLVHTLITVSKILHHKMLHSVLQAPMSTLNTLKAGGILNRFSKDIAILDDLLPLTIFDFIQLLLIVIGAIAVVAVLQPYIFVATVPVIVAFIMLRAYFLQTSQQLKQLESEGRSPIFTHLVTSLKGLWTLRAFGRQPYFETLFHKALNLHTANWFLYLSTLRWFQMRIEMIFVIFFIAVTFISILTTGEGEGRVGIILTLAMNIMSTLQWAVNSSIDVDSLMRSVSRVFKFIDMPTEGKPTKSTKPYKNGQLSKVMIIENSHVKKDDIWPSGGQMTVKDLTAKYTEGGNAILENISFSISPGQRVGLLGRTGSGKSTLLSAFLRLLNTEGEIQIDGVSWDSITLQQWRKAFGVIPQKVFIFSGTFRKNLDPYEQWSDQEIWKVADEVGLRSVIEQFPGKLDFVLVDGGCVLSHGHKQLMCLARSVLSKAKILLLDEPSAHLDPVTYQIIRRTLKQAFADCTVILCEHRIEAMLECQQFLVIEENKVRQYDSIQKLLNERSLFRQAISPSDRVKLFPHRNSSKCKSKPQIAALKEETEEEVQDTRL

| Molecule | surface display of ΔF508-CFTR (live cell-surface ELISA) | mutant CFTR at the cell surface (ELISA) |
| --- | --- | --- |
| O[C@](CCN1CCCCC1)(c1ccccc1)[C@H]1CC2C=CC1C2 (mixture of isomers) [Biperiden] | increased | – |
| CN1CCC(=C2c3ccccc3CCc3sccc32)CC1 [Pizotifen, 4-(1-methyl-4-piperidylidine)-9, 1 0-dihydro-4H-benzo-[4,5]cyclohepta[1,2]-thiophene] | increased | – |
| COc1cc2ncnc(Nc3cccc(Cl)c3)c2cc1OC [Tyrophostin (AG-1478), N-(3-chlorophenyl)-6,7-dimethoxy-4-quinazolinamine] | increased | – |
| SIN3A DsiRNA: Dicer-substrate siRNA against SIN3A, sense SEQ ID NO: 6, antisense SEQ ID NO: 7 (sense GCGAUACAUGAAUUCAGAUACUACC; antisense GGUAGUAUCUGAAUUCAUGUAUCGCUC; chemistry not given here) | – | mutant CFTR reached the cell surface |
| miR-138 mimic: synthetic modified RNA duplex, sense SEQ ID NO: 4, antisense SEQ ID NO: 5, showing miR-138-like activity | – | mutant CFTR reached the cell surface |
